Measured values from article PMC9492542, “Brain-restricted mTOR inhibition with binary pharmacology” (Nature, 2022).
Where “and” joins values, the source holds several entries; their conditions need not be identical. Equal entries are not always repeated.

Legend:
[1] = test system: U87MG; experiment: Orthotopic intracranial U87MG-luciferase glioblastoma xenograft
[2] = test system: K562 CRISPRi cells; experiment: Cell viability assay (CellTiter-Glo, 72 h) in K562 CRISPRi cells with sgRNA knockdown of FKBP12
Description: Knockdown cells were generated by transducing K562 CRISPRi (sgRNA^–) cells with the sgRNA expression vectors at a multiplicity of infection of less than 1 (20–40% transduction rate) with 8 μg ml^–1 polybrene.
Cells were seeded into 96-well white flat bottom plates (1,000 cells per well) (Corning) and incubated overnight. […] Cell viability was assessed using a commercial CellTiter-Glo (CTG) luminescence-based assay (Promega). In brief, the 96-well plates were equilibrated to room temperature before the addition of diluted CTG reagent (100 μl) (1:4 CTG reagent:PBS). Plates were placed on an orbital shaker for 30 min before recording luminescence using a Spark 20M (TECAN) plate reader.

[3] = target: MTORC1; experiment: Equilibrium constants for mTORC1 binding used in the model; details: read-out: Kd4 (drug binding to MTORC1 without FKBP); estimated, affinity of the TORKi portion for MTORC1
[4] = U87MG-Luc, day 0, individual mice
[5] = U87MG-Luc, day 5, individual mice
[6] = U87MG-Luc, day 10, individual mice
[7] = U87MG-Luc, day 15, individual mice
[8] = U87MG-Luc, day 20, individual mice
[9] = U87MG-Luc, day 25, individual mice

SMILES: CO[C@H]1C[C@@H]2CC[C@@H](C)[C@@](O)(O2)C(=O)C(=O)N2CCCC[C@H]2C(=O)O[C@H]([C@H](C)C[C@@H]2CC[C@@H](OCCOCc3cn(CCOCCOCCOCCOCCOCCOCCOCCOCCC(=O)NCCCCn4nc(-c5ccc6oc(N)nc6c5)c5c(N)ncnc54)nn3)[C@H](OC)C2)CC(=O)[C@H](C)/C=C(\C)[C@@H](O)[C@@H](OC)C(=O)[C@H](C)C[C@H](C)/C=C/C=C/C=C/1C [RapaLink-1]
- tumour growth and survival ([1]; RapaLink-1 1 mg per kg, RapaBlock 40 mg per kg, i.p. every 5 days): significantly suppressed tumour growth and improved survival
- Mouse weight [1, 4]: 25.3 g and 21.6 g and 19 g and 22.3 g and 21.7 g and 23.2 g
- Tumor size (measured by bioluminescence) [1, 4]: 4240000 and 1010000 and 1910000 and 5080000 and 3680000 and 9440000
- Mouse weight [1, 5]: 26.2 g and 22.3 g and 20.2 g and 23.3 g and 23.2 g (2×)
- Tumor size (measured by bioluminescence) [1, 5]: 1460000 and 640000 and 1800000 and 5970000 and 155000 and 7230000
- Mouse weight [1, 6]: 26.1 g and 22.4 g (2×) and 20.7 g and 22.7 g and 21.8 g
- Tumor size (measured by bioluminescence) [1, 6]: 3420000 and 1030000 and 12000000 and 3100000 and 5850000 and 4400000
- Mouse weight [1, 7]: 25.2 g and 22 g and 20.3 g and 23.7 g and 23.4 g and 21.9 g
- Tumor size (measured by bioluminescence) [1, 7]: 11100000 and 3790000 and 12200000 and 19000000 and 408000 and 7800000
- Mouse weight [1, 8]: 26.4 g and 22.6 g and 21.3 g and 25.8 g and 23.9 g and 23.3 g
- Tumor size (measured by bioluminescence) [1, 8]: 53600000 and 17300000 and 32400000 and 53200000 and 63600000 and 11500000
- Mouse weight [1, 9]: 22.4 g and 22.3 g and 20.3 g and 24.8 g and 21.6 g and 23.4 g
- Tumor size (measured by bioluminescence) [1, 9]: 605000000 and 412000000 and 640000000 and 201000000 and 1240000000 and 128000000
- Tumor size (measured by bioluminescence) ([1]; U87MG-Luc, day 30, individual mice): 1100000000 and 366000000 and 814000000 and 167000000
- Mouse survival ([1]; U87MG-Luc, individual mice, listed as RL-1): 32 days and 30 days and 41 days and 40 days
- cell growth (K562-dCas9-KRAB) ([2]; FKBP12 sgRNA-1, 0.0152416 nM): 105.506 and 102.628 and 96.1562
- cell growth (K562-dCas9-KRAB) ([2]; FKBP12 sgRNA-1, 0.0457247 nM): 105.668 and 102.078 and 85.8686
- cell growth (K562-dCas9-KRAB) ([2]; FKBP12 sgRNA-1, 1.23457 nM): 94.9833 and 94.8438 and 86.0533
- cell growth (K562-dCas9-KRAB) ([2]; FKBP12 sgRNA-1, 3.7037 nM): 89.3098 and 83.2596 and 72.1854
- cell growth (K562-dCas9-KRAB) ([2]; FKBP12 sgRNA-1, 11.1111 nM): 53.7829 and 50.941 and 46.1745
- cell growth (K562-dCas9-KRAB) ([2]; FKBP12 sgRNA-1, 33.3333 nM): 28.0164 and 26.1284 and 21.6828
- cell growth (K562-dCas9-KRAB) ([2]; FKBP12 sgRNA-2, 0.0152416 nM): 97.2191 and 100.632 and 101.126
- cell growth (K562-dCas9-KRAB) ([2]; FKBP12 sgRNA-2, 0.0457247 nM): 97.7063 and 99.4263 and 97.7491
- cell growth (K562-dCas9-KRAB) ([2]; FKBP12 sgRNA-2, 0.137174 nM): 95.7095 and 97.9482 and 99.6852
- cell growth (K562-dCas9-KRAB) ([2]; FKBP12 sgRNA-2, 1.23457 nM): 93.7321 and 94.186 and 93.5157
- cell growth (K562-dCas9-KRAB) ([2]; FKBP12 sgRNA-2, 3.7037 nM): 38.5541 and 41.9621 and 38.7138
- cell growth (K562-dCas9-KRAB) ([2]; FKBP12 sgRNA-2, 11.1111 nM): 19.9055 and 20.364 and 21.1046
- cell growth (K562-dCas9-KRAB) ([2]; FKBP12 sgRNA-2, 33.3333 nM): 15.1403 and 14.2518 and 15.8
- cell growth (K562-dCas9-KRAB) ([2]; GAL4-4 sgRNA, 0.0152416 nM): 101.863 and 99.8606 and 100.119
- cell growth (K562-dCas9-KRAB) ([2]; GAL4-4 sgRNA, 0.0457247 nM): 103.056 and 100.129 and 98.9614
- cell growth (K562-dCas9-KRAB) ([2]; GAL4-4 sgRNA, 0.137174 nM): 97.8709
- cell growth (K562-dCas9-KRAB) ([2]; GAL4-4 sgRNA, 1.23457 nM): 71.632 and 70.4313 and 67.4428
- cell growth (K562-dCas9-KRAB) ([2]; GAL4-4 sgRNA, 3.7037 nM): 17.746 and 15.8338 and 15.2774
- cell growth (K562-dCas9-KRAB) ([2]; GAL4-4 sgRNA, 11.1111 nM): 13.9448 and 13.723 and 15.0323
- cell growth (K562-dCas9-KRAB) ([2]; GAL4-4 sgRNA, 33.3333 nM): 13.6321 and 13.22 and 14.5715
- cellular activity after CRISPRi knockdown of FKBP12 ([2]; K562 dCas9-KRAB, two sgRNAs): drastically impeded its cellular activity
- cell growth (K562-dCas9-KRAB) ([2]; No sgRNA + 10 μM FK506, 0.0152416 nM): 90.7304 and 95.49 and 92.3837
- cell growth (K562-dCas9-KRAB) ([2]; No sgRNA + 10 μM FK506, 0.0457247 nM): 91.7724 and 93.2742 and 91.026
- cell growth (K562-dCas9-KRAB) ([2]; No sgRNA + 10 μM FK506, 0.137174 nM): 91.4157 and 89.1222 and 88.9009
- cell growth (K562-dCas9-KRAB) ([2]; No sgRNA + 10 μM FK506, 1.23457 nM): 91.763 and 90.0617 and 88.7417
- cell growth (K562-dCas9-KRAB) ([2]; No sgRNA + 10 μM FK506, 3.7037 nM): 89.7918 and 91.174 and 89.4532
- cell growth (K562-dCas9-KRAB) ([2]; No sgRNA + 10 μM FK506, 11.1111 nM): 86.3008 and 85.9782 and 86.561
- cell growth (K562-dCas9-KRAB) ([2]; No sgRNA + 10 μM FK506, 33.3333 nM): 70.168 and 69.6522 and 67.2473
- cell growth (K562-dCas9-KRAB) ([2]; No sgRNA, 0.0152416 nM): 98.221 and 102.996 and 99.7082
- cell growth (K562-dCas9-KRAB) ([2]; No sgRNA, 0.0457247 nM): 104.804 and 96.4373 and 102.095
- cell growth (K562-dCas9-KRAB) ([2]; No sgRNA, 0.137174 nM): 98.0154 and 97.5628 and 102.366
- cell growth (K562-dCas9-KRAB) ([2]; No sgRNA, 1.23457 nM): 69.0104 and 68.6714 and 68.1063
- cell growth (K562-dCas9-KRAB) ([2]; No sgRNA, 3.7037 nM): 15.0031 and 16.0719 and 14.3485
- cell growth (K562-dCas9-KRAB) ([2]; No sgRNA, 11.1111 nM): 13.4023 and 12.2624 and 12.6642
- cell growth (K562-dCas9-KRAB) ([2]; No sgRNA, 33.3333 nM): 12.1483 and 12.1908 and 11.8583
- Kd [3]: 5 nM
